Experiments:
[1] = Evaluation of solubility in water; format: physicochemical; conditions: thermodynamic from solid; Na salt: monosodium salt of 10 and 21, disodium salt (20) of 11; water added dropwise by 10 µl; corrected for mg in 1 ml at 23°C
Protocol: A solution of 10.3 mg (24.3 µmol) of compound (11) in 4.85 ml (48.6 µmol) of a 0.01 M methanolic solution of sodium methylate was filtered through a Millipore filter and then concentrated. The resulting residue was dried under reduced pressure to obtain disodium salt (20).

[2] = target: T1, human sPLA2 (Homo sapiens, UniProt P14555); test: In vitro test for sPLA2-inhibitory action by PC/DOC method; format: biochemical; conditions: PC/DOC = 1 mM/3 mM; Tris buffer 50 mM, pH 8.0; 40°C for 30 minutes; oleic acid measured by HPLC
T1 sequence (P14555 21-144): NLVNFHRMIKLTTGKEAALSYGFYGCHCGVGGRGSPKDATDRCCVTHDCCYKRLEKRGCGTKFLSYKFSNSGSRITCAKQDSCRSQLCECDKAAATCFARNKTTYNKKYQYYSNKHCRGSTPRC
Protocol: A 50 mM solution of 1-palmitoyl-1-oleoyl-sn-glycero-3-phosphatidylcholine in chloroform (PC) was used as a substrate. A 150 mM solution of sodium deoxycholate in methanol (DOC) was used as a surface-active agent
First, the substrate and the surface-active agent were transferred into an Eppendorf tube and the solvent was evaporated by applying a nitrogen stream. Then, the tube was placed in a desiccator and evacuated with a pump to complete dryness. Thereto was added water in an amount to be used for the assay and the solution was stirred for 1 minute. The final concentrations were adjusted so as to make PC/DOC = 1 mM/3 mM.
As the buffer solution for measurement was prepared a Tris buffer solution (50 mM, pH 8.0) containing 150 mM sodium chloride, calcium chloride (10 mM), and bovine serum albumin (1 mg/ml).
To a test compound solution were added the substrate solution and the buffer solution for measurement prepared as described above and the resulting mixture was stirred to mix. […] HPLC analysis was carried out under the following analysis conditions: Column: Supersphere ^R60 RP-8 (Merck & Co.) Mobile: Phase: Acetonitrile : Distilled water (93:7) Detection: Absorbance at 254 nm
The inhibitory activity of the compound was calculated from the amount of oleic acid thus-measured.

Structure (SMILES) | solubility [1] | IC50 [2]
CCc1c(C(=O)C(N)=O)c2c(OCC(=O)O)cc(C(=O)O)cc2n1Cc1ccccc1 [Compound 11, 1-Benzyl-6-carboxy-4-carboxymethyloxy-2-ethyl-3-oxamoyl-1H-indole] | 228 mg/mL | 43.8 nM
CCc1c(C(=O)C(N)=O)c2c(OCC(=O)O)cccc2n1Cc1ccccc1 [Compound 21, reference compound] | 1.4 mg/mL | –
CCc1c(C(=O)C(N)=O)c2c(OCC(=O)O)cc(C(=O)OC)cc2n1Cc1ccccc1 [compound 10] | 68 mg/mL | 1.7 nM

Source: patent EP0987250A1, “INDOLE DICARBOXYLIC ACID DERIVATIVES” (SHIONOGI & CO., LTD., priority 1997, dated 1998)
